Measurements taken from PubChem BioAssay AID328 (DTP/NCI, 2004).
Inconclusive results and toxic doses are left out. The calls were made as follows: active = survival T/C of 150% or more; inactive = T/C below 125% in these data.

Test system: BDF1 mice, P388 leukemia ip, median survival T/C
Test: NCI In Vivo Anticancer Drug Screen. Data for tumor model P388 Leukemia (intraperitoneal) in B6D2F1 (BDF1) mice
Settings: endpoint: median survival time, higher = longer survival
Outline: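 T/C = treated-group survival ÷ vehicle-control survival; tumour transplanted into mice before dosing.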

[1] = dose: 25.0 mg/kg/injection, schedule: Q04DX003 (ip), vehicle: saline
[2] = dose: 50.0 mg/kg/injection, schedule: Q01DX009 (ip), vehicle: saline with Tween-80
[3] = dose: 50.0 mg/kg/injection, schedule: Q04DX003 (ip), vehicle: saline sonified

Measured: T/C

C1CN2CCC1C1(C2)SSC2(CN3CCC2CC3)S1 (configuration not stated)
inactive: dose: 6.25 mg/kg/injection, schedule: Q04DX003 (ip), vehicle: saline 100 % of control | dose: 12.5 mg/kg/injection, schedule: Q04DX003 (ip), vehicle: saline 105 % of control | [1] 100 % of control

O=C1CCC(=O)N1C1c2ccccc2Oc2ccccc21
inactive: dose: 100.0 mg/kg/injection, schedule: Q01DX001 (ip), vehicle: other 90 % of control | dose: 200.0 mg/kg/injection, schedule: Q01DX001 (ip), vehicle: other 90 % of control | dose: 400.0 mg/kg/injection, schedule: Q01DX001 (ip), vehicle: other 113 % of control

N=C(N)c1ccc(-c2ccc(-c3ccc(C(=N)N)cc3)o2)cc1
inactive: dose: 3.13 mg/kg/injection, schedule: Q01DX009 (ip), vehicle: saline with Tween-80 111 % of control | dose: 6.25 mg/kg/injection, schedule: Q01DX009 (ip), vehicle: saline with Tween-80 119 % of control

CC(=O)C(C(C)=O)c1ccccc1.CC(=O)C(C(C)=O)c1ccccc1.[Ni]
inactive: dose: 3.0 mg/kg/injection, schedule: Q01DX009 (ip), vehicle: Klucel (hydroxypropylcellulose) (HPC) 110 % of control | dose: 6.0 mg/kg/injection, schedule: Q01DX009 (ip), vehicle: Klucel (hydroxypropylcellulose) (HPC) 100 % of control | dose: 6.0 mg/kg/injection, schedule: Q04DX003 (ip), vehicle: other 100 % of control | dose: 12.0 mg/kg/injection, schedule: Q01DX009 (ip), vehicle: Klucel (hydroxypropylcellulose) (HPC) 100 % of control | dose: 12.0 mg/kg/injection, schedule: Q04DX003 (ip), vehicle: other 95 % of control | dose: 25.0 mg/kg/injection, schedule: Q04DX003 (ip), vehicle: other 100 % of control

CC[C@@]1(O)C(=O)OCc2c1cc1n(c2=O)Cc2cc3c(OC)cccc3nc2-1
active: dose: 0.5 mg/kg/injection, schedule: Q01DX009 (ip), vehicle: carboxymethylcellulose (CMC) 182 % of control | dose: 1.0 mg/kg/injection, schedule: Q01DX009 (ip), vehicle: carboxymethylcellulose (CMC) 195 % of control

O=C(CC/[N+]([O-])=C/c1ccccc1)OCc1ccccc1
inactive: dose: 12.5 mg/kg/injection, schedule: Q01DX009 (ip), vehicle: other 92 % of control | dose: 25.0 mg/kg/injection, schedule: Q01DX009 (ip), vehicle: other 97 % of control | dose: 50.0 mg/kg/injection, schedule: Q01DX009 (ip), vehicle: other 103 % of control | dose: 100.0 mg/kg/injection, schedule: Q01DX009 (ip), vehicle: other 97 % of control | dose: 200.0 mg/kg/injection, schedule: Q01DX009 (ip), vehicle: other 92 % of control

O=C(C[N+]12CN3CN(CN(C3)C1)C2)c1ccc(Cl)cc1
inactive: [1] 100 % of control | dose: 44.0 mg/kg/injection, schedule: Q04DX003 (ip), vehicle: saline sonified 104 % of control | [2] 107 % of control | dose: 50.0 mg/kg/injection, schedule: Q04DX003 (ip), vehicle: saline 110 % of control | dose: 66.0 mg/kg/injection, schedule: Q04DX003 (ip), vehicle: saline sonified 118 % of control | dose: 100.0 mg/kg/injection, schedule: Q01DX009 (ip), vehicle: saline with Tween-80 119 % of control | dose: 200.0 mg/kg/injection, schedule: Q01DX009 (ip), vehicle: saline with Tween-80 119 % of control

Oc1c(O)c(Cl)c(Cl)c(Cl)c1Cl
inactive: dose: 12.5 mg/kg/injection, schedule: Q01DX009 (ip), vehicle: saline sonified 95 % of control | dose: 12.5 mg/kg/injection, schedule: Q04DX003 (ip), vehicle: saline sonified 100 % of control | dose: 25.0 mg/kg/injection, schedule: Q01DX009 (ip), vehicle: saline sonified 108 % of control | dose: 25.0 mg/kg/injection, schedule: Q04DX003 (ip), vehicle: saline sonified 100 % of control | dose: 50.0 mg/kg/injection, schedule: Q01DX009 (ip), vehicle: saline sonified 116 % of control | [3] 100 % of control

O=C(Nc1ccc([N+](=O)[O-])cc1)Nc1ccc([N+](=O)[O-])cc1
inactive: [3] 86 % of control | dose: 100.0 mg/kg/injection, schedule: Q04DX003 (ip), vehicle: saline sonified 86 % of control | dose: 200.0 mg/kg/injection, schedule: Q04DX003 (ip), vehicle: saline sonified 90 % of control

C=CCOCC(O)CN(CCCC)CCCC (configuration not stated)
inactive: dose: 12.5 mg/kg/injection, schedule: Q01DX009 (ip), vehicle: saline with Tween-80 95 % of control | dose: 25.0 mg/kg/injection, schedule: Q01DX009 (ip), vehicle: saline with Tween-80 95 % of control | [2] 105 % of control

O=c1[nH]cc(Br)c2sccc12
inactive: dose: 150.0 mg/kg/injection, schedule: Q01DX009 (ip), vehicle: saline 90 % of control | dose: 225.0 mg/kg/injection, schedule: Q01DX009 (ip), vehicle: saline 86 % of control
